Source: the supplement of paper PMC11061612

Tests used:
Assay in all cases: Bliss excess, mean over the matrix (fraction); higher = more synergy
[1] = system: P31-FUJ (Acute Myeloid Leukemia)
Method in brief: (§1)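 After 24 hours at 37°C and 5% CO2 in 1536-well plates, cells in DMEM/F12 or RPMI plus 10% FBS received two-drug dose matrices for 72 hours. Viability came from CellTiter-Glo 2.0 luminescence and was scaled as inhibition, anchored at 0 by vehicle wells and at 1 by blank wells. Combination Emax is taken as the second-highest inhibition in the matrix, and Bliss excess as the observed combination effect less EA + EB − EA·EB, with EA and EB the single-agent effects.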

[2] = system: HCC1143 (Breast Carcinoma)
Method in brief: as §1

[3] = system: U-118-MG (Low Grade Glioma)
Method in brief: as §1

[4] = system: GDM-1 (Acute Myeloid Leukemia)
Method in brief: as §1

[5] = system: YT (Other Blood Carcinomas)
Method in brief: as §1

Saos-2 (Osteosarcoma) = system: Saos-2 (Osteosarcoma)
Method in brief: as §1

[6] = system: 647-V (Bladder Carcinoma)
Method in brief: as §1

[7] = system: HCC-827 (Lung Adenocarcinoma)
Method in brief: as §1

[8] = system: BICR78 (Oral Cavity Carcinoma)
Method in brief: as §1

H4 (Low Grade Glioma) = system: H4 (Low Grade Glioma)
Method in brief: as §1

[9] = system: TYK-nu (Ovarian Carcinoma)
Method in brief: as §1

EW-22 (Ewing's Sarcoma) = system: EW-22 (Ewing's Sarcoma)
Method in brief: as §1

[10] = system: CAL-39 (Other Solid Carcinomas)
Method in brief: as §1

[11] = system: WSU-DLCL2 (B-Cell Non-Hodgkin's Lymphoma)
Method in brief: as §1

[12] = system: SKN-3 (Head and Neck Carcinoma)
Method in brief: as §1

[13] = system: DOK (Oral Cavity Carcinoma)
Method in brief: as §1

[14] = system: HCT-116 (Colorectal Carcinoma)
Method in brief: as §1

[15] = system: SW948 (Colorectal Carcinoma)
Method in brief: as §1

A172 (Glioblastoma) = system: A172 (Glioblastoma)
Method in brief: as §1

[16] = system: RCC10RGB (Kidney Carcinoma)
Method in brief: as §1

Row | SMILES | Bliss excess [1] | Bliss excess [2] | Bliss excess [3] | Bliss excess [4] | Bliss excess [5] | Bliss excess (Saos-2 (Osteosarcoma)) | Bliss excess [6] | Bliss excess [7] | Bliss excess [8] | Bliss excess (H4 (Low Grade Glioma)) | Bliss excess [9] | Bliss excess (EW-22 (Ewing's Sarcoma)) | Bliss excess [10] | Bliss excess [11] | Bliss excess [12] | Bliss excess [13] | Bliss excess [14] | Bliss excess [15] | Bliss excess (A172 (Glioblastoma)) | Bliss excess [16]
1 | CC(=O)c1c(C)c2cnc(Nc3ccc(N4CCNCC4)cn3)nc2n(C2CCCC2)c1=O [Palbociclib] + CC1(C)CCC(CN2CCN(c3ccc(C(=O)NS(=O)(=O)c4ccc(NCC5CCOCC5)c([N+](=O)[O-])c4)c(Oc4cnc5[nH]ccc5c4)c3)CC2)=C(c2ccc(Cl)cc2)C1 [Venetoclax] (first compound max 10 µM, 7x7, partner max 1 µM) | -0.073 | -0.0237 | 0.0308 | 0.0557 | -0.13 | -0.0417 | -0.0439 | -0.0379 | -0.0611 | 0.0013 | -0.0026 | 0.0129 | -0.0566 | 0.0277 | -0.07 | -0.0542 | -0.0285 | -0.089 | -0.003 | -0.0012
2 | CN(CCO)CC[C@H](CSc1ccccc1)Nc1ccc(S(=O)(=O)NC(=O)c2ccc(N3CCC([C@@H](O)c4ccccc4-c4ccc(Cl)cc4)CC3)cc2)cc1S(=O)(=O)C(F)(F)F [AZD4320] + CCN(CCO)CCCOc1ccc2c(Nc3cc(CC(=O)Nc4cccc(F)c4)[nH]n3)ncnc2c1 [AZD2811] (first compound max 1 µM, 7x7, partner max 1 µM) | -0.0531 | -0.0091 | -0.0148 | 0.0067 | -0.0344 | 0.0831 | 0.114 | -0.0596 | -0.0008 | 0.0036 | -0.0086 | 0.0467 | 0.0236 | 0.201 | -0.0333 | 0.0043 | 0.108 | -0.0196 | 0.0322 | -0.0539
3 | CC1(C)CCC(CN2CCN(c3ccc(C(=O)NS(=O)(=O)c4ccc(NCC5CCOCC5)c([N+](=O)[O-])c4)c(Oc4cnc5[nH]ccc5c4)c3)CC2)=C(c2ccc(Cl)cc2)C1 [Venetoclax] + C[C@@H]1COCCN1C2=NC(=NC(=C2)C3(CC3)[S@](=N)(=O)C)C4=C5C=CNC5=NC=C4 [AZD6738] (first compound max 1 µM, 7x7, partner max 10 µM) | 0.0498 | -0.0573 | -0.0106 | -0.0163 | 0.0174 | -0.0316 | -0.0317 | -0.0418 | -0.0397 | -0.0301 | -0.0315 | -0.0189 | -0.026 | 0.0423 | -0.043 | -0.0833 | -0.0703 | -0.0835 | -0.0141 | -0.0242
4 | COc1cccc(OCCCN)c1-c1cc(Nc2cnc(C#N)cn2)n[nH]1 [Prexasertib] + C[C@@H]1COCCN1C2=NC(=NC(=C2)C3(CC3)[S@](=N)(=O)C)C4=C5C=CNC5=NC=C4 [AZD6738] (first compound max 1 µM, 7x7, partner max 10 µM) | 0.0092 | -0.026 | -0.0136 | -0.0333 | -0.0631 | -0.0739 | -0.0106 | -0.0234 | -0.0057 | 0.0311 | -0.0604 | -0.0326 | 0.0251 | 0.0096 | -0.0347 | 0.0689 | 0.103 | 0.0334 | 0.0013 | 0.0657
5 | CC(=O)Nc1cccc(-n2c(=O)n(C3CC3)c(=O)c3c(Nc4ccc(I)cc4F)n(C)c(=O)c(C)c32)c1 [Trametinib] + Cc1nc(-c2cn3c(n2)-c2ccc(-c4cnn(C(C)(C)C(N)=O)c4)cc2OCC3)n(C(C)C)n1 [Taselisib] (first compound max 1 µM, 7x7, partner max 10 µM) | 0.182 | 0.0615 | -0.0083 | 0.0571 | -0.0043 | 0.0402 | 0.106 | 0.0731 | 0.0654 | 0.132 | 0.138 | -0.0042 | 0.0657 | 0.0464 | 0.11 | 0.0767 | 0.124 | 0.0126 | 0.0645 | -0.0186
6 | CC1(C)CCC(CN2CCN(c3ccc(C(=O)NS(=O)(=O)c4ccc(NCC5CCOCC5)c([N+](=O)[O-])c4)c(Oc4cnc5[nH]ccc5c4)c3)CC2)=C(c2ccc(Cl)cc2)C1 [Venetoclax] + C1CN(CCC1(C(=O)N[C@@H](CCO)C2=CC=C(C=C2)Cl)N)C3=NC=NC4=C3C=CN4 [Capivasertib] (first compound max 1 µM, 7x7, partner max 3 µM) | 0.0141 | -0.0004 | -0.0494 | -0.0325 | 0.0073 | -0.029 | -0.0247 | -0.0278 | -0.0342 | -0.0366 | -0.0343 | 0.0137 | -0.0183 | 0.0415 | -0.033 | -0.0532 | -0.0801 | -0.0718 | -0.0461 | -0.0402
7 | CC1(C)CCC(CN2CCN(c3ccc(C(=O)NS(=O)(=O)c4ccc(NCC5CCOCC5)c([N+](=O)[O-])c4)c(Oc4cnc5[nH]ccc5c4)c3)CC2)=C(c2ccc(Cl)cc2)C1 [Venetoclax] + C=CCn1c(=O)c2cnc(Nc3ccc(N4CCN(C)CC4)cc3)nc2n1-c1cccc(C(C)(C)O)n1 [AZD1775] (first compound max 1 µM, partner max 1 µM) | 0.0685 | -0.0192 | -0.0704 | 0.132 | -0.0039 | 0.0339 | -0.0274 | -0.0764 | 0.0011 | 0.0732 | -0.107 | 0.139 | -0.0308 | 0.0465 | -0.0949 | -0.0582 | -0.0765 | -0.0113 | -0.0833 | -0.0374
8 | NC1(C(=O)N[C@@H](CCO)c2ccc(Cl)cc2)CCN(c2ncnc3[nH]ccc23)CC1 [Capivasertib] + CCN(CCO)CCCOc1ccc2c(Nc3cc(CC(=O)Nc4cccc(F)c4)[nH]n3)ncnc2c1 [AZD2811] (first compound max 10 µM, 7x7, partner max 1 µM) | -0.0663 | 0.0137 | -0.0475 | -0.0464 | 0.002 | -0.0757 | -0.0332 | -0.0428 | -0.0092 | -0.0124 | -0.0351 | -0.0366 | -0.051 | 0.0415 | -0.0524 | -0.0355 | 0.0513 | -0.0161 | -0.0079 | -0.0838
9 | Cc1c2c(nn1C)CSCc1cc(n(C)n1)CSc1cc(c3ccccc3c1)OCCCc1c(C(=O)O)n(C)c3c-2c(Cl)ccc13 [AZD5991] + CN(C)CCCOc1ccc(-c2ccc3ncc4c(c3c2)n(C2CCOCC2)c(=O)n4C)cn1 [AZD0156] (first compound max 1 µM, 7x7, partner max 1 µM) | 0.0014 | -0.0287 | -0.0035 | 0.0079 | -0.0197 | -0.0158 | 0.015 | 0.011 | 0.0199 | 0.0376 | -0.034 | -0.0015 | -0.0786 | -0.0033 | -0.0173 | -0.0121 | 0.0431 | -0.0205 | -0.0019 | -0.0619
10 | CN(CCO)CC[C@H](CSc1ccccc1)Nc1ccc(S(=O)(=O)NC(=O)c2ccc(N3CCC([C@@H](O)c4ccccc4-c4ccc(Cl)cc4)CC3)cc2)cc1S(=O)(=O)C(F)(F)F [AZD4320] + C1CN(CCC1(C(=O)N[C@@H](CCO)C2=CC=C(C=C2)Cl)N)C3=NC=NC4=C3C=CN4 [Capivasertib] (first compound max 1 µM, 7x7, partner max 3 µM) | 0.0452 | -0.0314 | -0.0546 | -0.0206 | 0.0135 | 0.0035 | 0.0056 | -0.0644 | -0.0097 | -0.0397 | -0.038 | -0.0341 | -0.0296 | 0.0691 | -0.0375 | -0.0554 | -0.0366 | -0.0497 | -0.0588 | -0.0576
11 | Cc1c2c(nn1C)CSCc1cc(n(C)n1)CSc1cc(c3ccccc3c1)OCCCc1c(C(=O)O)n(C)c3c-2c(Cl)ccc13 [AZD5991] + Cn1cnc2c(F)c(Nc3ccc(Br)cc3Cl)c(C(=O)NOCCO)cc21 [Selumetinib] (first compound max 1 µM, 7x7, partner max 3 µM) | 0.0399 | 0.0552 | -0.0054 | 0.0387 | -0.0051 | -0.007 | 0.0749 | -0.0091 | -0.0106 | -0.0265 | -0.0052 | -0.019 | 0.02 | -0.0123 | 0.0324 | 0.0495 | -0.0049 | -0.0388 | 0.0179 | 0.0528
12 | COc1cc2c(cc1OCCCCCOc1cc3c(cc1OC)C(=O)N1C=C(C)C[C@H]1C=N3)N=C[C@@H]1CC(C)=CN1C2=O [SG3199] + O=C(c1cc(Cc2n[nH]c(=O)c3ccccc23)ccc1F)N1CCN(C(=O)C2CC2)CC1 [Olaparib] (first compound max 0.001 µM, 7x7, partner max 10 µM) | -0.0645 | -0.0216 | -0.0488 | -0.0311 | 0.019 | -0.0277 | -0.0289 | -0.0194 | -0.0456 | -0.0406 | -0.046 | -0.0544 | -0.0306 | -0.0058 | -0.0276 | -0.0368 | -0.0523 | -0.0092 | 0.0064 | -0.052
13 | CC1(C)CCC(CN2CCN(c3ccc(C(=O)NS(=O)(=O)c4ccc(NCC5CCOCC5)c([N+](=O)[O-])c4)c(Oc4cnc5[nH]ccc5c4)c3)CC2)=C(c2ccc(Cl)cc2)C1 [Venetoclax] + CCN(CCO)CCCOc1ccc2c(Nc3cc(CC(=O)Nc4cccc(F)c4)[nH]n3)ncnc2c1 [AZD2811] (first compound max 1 µM, 7x7, partner max 1 µM) | -0.0512 | 0.0005 | -0.0032 | 0.0676 | -0.0328 | 0.0727 | 0.0533 | -0.015 | -0.0393 | 0.0007 | -0.0266 | 0.0583 | -0.0113 | 0.301 | -0.0167 | -0.0249 | 0.008 | -0.0229 | -0.0296 | -0.066
14 | COc1cccc(OCCCN)c1-c1cc(Nc2cnc(C#N)cn2)n[nH]1 [Prexasertib] + C=CCn1c(=O)c2cnc(Nc3ccc(N4CCN(C)CC4)cc3)nc2n1-c1cccc(C(C)(C)O)n1 [AZD1775] (first compound max 1 µM, partner max 1 µM) | 0.0104 | 0.0271 | 0.0225 | 0.0096 | -0.0086 | 0.105 | 0.233 | -0.029 | 0.0619 | 0.0726 | 0.0459 | 0.223 | 0.0679 | 0.138 | 0.119 | 0.108 | 0.083 | 0.0608 | 0.142 | -0.0202
